The text below walks through data of US6723702B2, “Use of relaxin treat diseases related to vasoconstriction” (RAS Medical, Inc., priority 2000, dated 2004).

Assay [1] relates to female Swiss Webster mice. As to the kind of experiment: Matrigel assay of angiogenesis. In kind it is in vivo, mouse. As to conditions: 100 ng/ml in Matrigel, s.c., three separate studies, vs vehicle. As for the experimental part:
Animals were purchased from Harlan Sprague Dawley (Indianapolis, Ind.) and were housed according to NIH guidelines. Protocols were in compliance with institutional guidelines. Matrigel (Collaborative Biomedical, Bedford, Mass.) was mixed with relaxin to a final concentration of 100 ng/ml, or mixed with the identical volume of citrate buffer, on ice. […] was injected subcutaneously into the flank of female Swiss Webster mice. At 11 days, the Matrigel plugs were harvested, fixed, and stained with H & E (hematoxylin and eosin) for assessment of new blood vessel ingrowth. Vessel growth was scored on a 0-5 scale: 0=no infiltration; 1=minor infiltration; 2 =3-5 cell layers infiltrating only margins of the plug; 3=5-10 cell layers infiltrating margins with some areas of deeper infiltration; <25% of plug infiltrated; 4=Many areas of deep cellular infiltration; 25-50% of plug infiltrated; 5=50-100% of plug infiltrated. Endothelial cells preferentially migrate into the basement membrane matrix.
The ability of relaxin to induce new blood vessel growth in vivo was tested in the murine Matrigel system for assessing angiogenesis. Passaniti et al. (1992) Lab. Invest. 67:519-528. […] At 10 days, Matrigel plugs were harvested, processed for histology, and H & E sections scored for vessel ingrowth in blinded fashion. […]

In assay [2] the test system is Female Sprague-Dawley rats. Briefly: Kidney function in cyclosporine-treated rats. The class given is in vivo, rat. As to conditions: for GFR / Urine Flow: Normal = 1.0. As to the method: Relaxin (rhRlx) was administrated via subcutaneous pumps at dose of either 0.1 mg/kg/day or 0.5 mg/kg/day for 10 days (day 0-10). On day B2 (baseline), Day 4, and Day 9, all rats were put into metabolic cages. The 24-hour urine volume was measured to calculate urine flow rate using the following formula: […]
Blood and urine were collected for creatinine measurement to calculate the GFR using the following formula: […]

In a further assay the test system is small renal arteries. Briefly: Myogenic reactivity of isolated small renal arteries, pressurized arteriograph. As to conditions: female rats administered rhRLX for 5 days (FIG. 14). In kind it is in vivo, rat. An excerpt:
Myogenic reactivity is a dynamic and complex integrative vascular behavior which can be assessed in small renal arteries utilizing the pressurized arteriograph. Equivalent tone was first established in all vessels by constricting them to 75% of their baseline diameter at 60 mm Hg using the adrenergic agonist, phenylephrine. Next the arteries which began at an initial pressure of 20 mm Hg were subjected to a rapid increase in transmural pressure of 20 mm Hg increments in the absence of flow. […] This blunted myogenic reactivity following rhRLX treatment of nonpregnant rats mimics pregnancy (Gandley RE, Conrad KP, McLaughlin MK. Am J Physiol Integrative Comp Physiol 280:R1-R7, 2001). Morever, as during pregnancy, this blunted myogenic reactivity can be reversed by adding inhibitors of nitric oxide to the vessel bath.

Assay [3] deals with rat VEGF164, VEGF120 and bFGF mRNA in peri-infarct area of rat hearts. As to the kind of experiment: Rat myocardial infarct (LCAL) model: quantitative RT-PCR of VEGF and bFGF. In kind it is in vivo. As to the method: Female Sprague Dawley rats, approximately 12-weeks of age were used. Rats were anesthetized by intraperitoneal (i.p.) injection of up to 1 ml/kg ketamine/medetomidine (6:4). Following exteriorization of the heart, the left coronary artery was ligated near its origin with a silk suture. In sham surgery control animals, the suture was placed superficially into the muscle adjacent to the coronary artery. Post-closure EKG's were monitored for S-T segment elevation in LCAL animals to confirm the outcome of ligation. Immediately following cardiac surgery, a primed mini-osmotic pump containing relaxin or vehicle (20 mM acetate, pH 5.0) was aseptically implanted into a subcutaneous (s.c.) pocket on the dorsal interscapular region. Vehicle or relaxin (0.1 mg/kg/day) was delivered as a continuous s.c. infusion for 7 or 21 days to either sham or LCAL animals. Animals were terminated on day 7 or 21, and the peri-infarct regions anterior to the scar in the left ventricle, or equivalent sites on sham surgery animals were harvested.
The left coronary artery ligation (LCAL) model of myocardial ischemia in the rat (Selye et al. (1960) Angiology 11:398-407) caused profound, acute damage, involving up to 50% of the left ventricular free wall. Following systemic relaxin treatment, using rhRLX, tissue RNA was examined at 7 and 21 days post-infarction for persistent changes in VEGF and bFGF. Cells in the immediate margins surrounding the infarct were sampled to assess angiogenic cytokine expression, using quantitative RT-PCR analysis. Oligonucleotide primers and TaqMan probes, shown in Table 8, were purchased from BioSource International Inc.(Camarillo, Calif.), or PE Applied Biosystems for use with the ABI Prism^7 7700 Sequence Detection System (quantitative PCR) (PE Applied Biosystems).
Oligonucleotides were designed to rat or human bFGF, human VEGF165 amino acid or 121 amino acid isoforms, and their respective rat homologues (VEGF164 and VEGF120), and human HGF (for use with the PE Applied Biosystems “GeneAmp PCR System 9600”). Rat and human GAPDH primers and probes were purchased from BioSource International Inc. and PE Applied Biosystems, respectively. Tissue samples and monolayer cells were suspended in RNA STAT-60 (Tel-Test, Inc., Friendswood, Tex.) and processed following vendor instructions. Reverse transcription-polymerase chain reaction (RT-PCR) was performed using either rat or human total RNA as template. 150 ng of total RNA was used for the analysis of VEGF, bFGF and HGF mRNA expression; 10 ng of total RNA was used for GAPDH mRNA expression. Reverse transcription-polymerase chain reaction (RT-PCR) reagents were purchased from PE Biosystems (Foster City, Calif.).
RNA was extracted from peri-infarct regions of rat hearts following LCAL or an analogous area of sham hearts. […]

[4] abbreviates: CsA and rhRlx at either 0.1 mg/kg or 0.5 mg/kg.
Setting [5] is: Normal rats + 0.5 mg/kg, Day 10.

For the substance “rhRLX: recombinant human relaxin, identical in amino acid sequence to the product of the human H2 gene; A chain of 24, B chain of 29 amino acids”, in assay [1], the “vessel ingrowth into Matrigel plugs” value is listed as “significantly more vessel ingrowth”. Moreover, the GFR in assay [2] (CsA + 0.1 mg/kg, Day 5) is reported as 0.99 ± 0.15; in assay [2] (CsA + 0.1 mg/kg, Day 10), 1.49 ± 0.18; in assay [2] (CsA + 0.5 mg/kg, Day 5) it was 1.231 ± 0.15; in assay [2] (CsA + 0.5 mg/kg, Day 10) it was 1.39 ± 0.13; in assay [2] (Normal rats + 0.5 mg/kg, Day 5), 1.47 ± 0.08; in assay [2] (setting [5]), 1.50 ± 0.09. The “Urine Flow” value is 1.21 ± 0.36 in assay [2] (CsA + 0.1 mg/kg, Day 5); 1.59 ± 0.41 in assay [2] (CsA + 0.1 mg/kg, Day 10); 1.27 ± 0.16 in assay [2] (CsA + 0.5 mg/kg, Day 5); 1.067 ± 0.11 in assay [2] (CsA + 0.5 mg/kg, Day 10); 1.68 ± 0.02 in assay [2] (Normal rats + 0.5 mg/kg, Day 5); 1.42 ± 0.01 in assay [2] (setting [5]). For the same substance, in assay [2] (setting [4]), the “creatinine clearance compared to animals treated with CsA alone” value is given as “significantly improved”. The “urine flow rate compared to animals treated with CsA alone” value in assay [2] (setting [4]) is listed as “significantly improved”. The “creatinine clearance compared to the baseline” value in assay [2] (normal rats, 0.5 mg/kg, day 5) is reported as 147%. Further, the “urine flow rate compared to the baseline” value in assay [2] (normal rats, 0.5 mg/kg, day 5) amounted to 168%. Also, the “myogenic reactivity ex vivo” value in the assay with small renal arteries is on record as “reduced myogenic reactivity”. In addition, the “increase in peri-infarct bFGF expression (mRNA)” value in assay [3] (0.1 mg/kg/day s.c., both 7 and 21 days, vs vehicle-treated infarcted hearts) is 2 fold. Also, the “relative expression of either VEGF isoform, peri-infarct regions” value in assay [3] (0.1 mg/kg/day, day 7) was “no changes”. Moreover, in assay [3] (0.1 mg/kg/day, day 21), the “relative levels of VEGF164 and VEGF120 transcripts” value is recorded as “trend towards an increase”. The “VEGF or bFGF mRNA expression” value in assay [3] (sham surgery animals) is “no effect”.
